Results taken from ChEMBL document CHEMBL3217600, “The discovery and profile of PF-0868087, a CNS-sparing histamine H3 receptor antagonist for the treatment of allergic rhinitis” (Medchemcomm, 2012).

Assays:
[1] = biological target: Voltage-gated inwardly rectifying potassium channel KCNH2 (Homo sapiens, UniProt Q12809); assay: Binding affinity to human ERG
[2] = Total Cmax in rat at 1 mg/kg, iv administered as bolus dose; assay type: ADME, organism-based; parameters: dose 1 mg/kg, route intravenous; details: in vivo
[3] = Total Cmax in rat at 2 mg/kg, po; assay type: ADME, organism-based; parameters: dose 2 mg/kg, route oral; details: in vivo
[4] = Total Cmax in dog at 0.2 mg/kg, iv infusion; assay type: ADME, organism-based, Canis lupus familiaris; parameters: dose 0.2 mg/kg, route intravenous; details: in vivo
[5] = Total Cmax in dog at 0.2 mg/kg, po; assay type: ADME, organism-based, Canis lupus familiaris; parameters: dose 0.2 mg/kg, route oral; details: in vivo
Rattus norvegicus [6] = assay: Free Cmax in rat at 1 mg/kg, iv administered as bolus dose; assay type: ADME, organism-based; parameters: dose 1 mg/kg, route intravenous; details: in vivo
Rattus norvegicus [7] = assay: Free Cmax in rat at 2 mg/kg, po; assay type: ADME, organism-based; parameters: dose 2 mg/kg, route oral; details: in vivo
Canis familiaris [8] = assay: Free Cmax in dog at 0.2 mg/kg, iv infusion; assay type: ADME, organism-based, Canis lupus familiaris; parameters: dose 0.2 mg/kg, route intravenous; details: in vivo
Canis familiaris [9] = assay: Free Cmax in dog at 0.2 mg/kg, po; assay type: ADME, organism-based, Canis lupus familiaris; parameters: dose 0.2 mg/kg, route oral; details: in vivo
[10] = Tmax in rat at 2 mg/kg, po; assay type: ADME, organism-based; parameters: dose 2 mg/kg, route oral; details: in vivo
[11] = Tmax in dog at 0.2 mg/kg, po; assay type: ADME, organism-based, Canis lupus familiaris; parameters: dose 0.2 mg/kg, route oral; details: in vivo
[12] = AUC in rat at 1 mg/kg, iv administered as bolus dose; assay type: ADME, organism-based; parameters: dose 1 mg/kg, route intravenous; details: plasma
[13] = AUC in rat at 2 mg/kg, po; assay type: ADME, organism-based; parameters: dose 2 mg/kg, route oral; details: plasma
[14] = AUC in dog at 0.2 mg/kg, iv infusion; assay type: ADME, organism-based, Canis lupus familiaris; parameters: dose 0.2 mg/kg, route intravenous; details: plasma
[15] = AUC in dog at 0.2 mg/kg, po; assay type: ADME, organism-based, Canis lupus familiaris; parameters: dose 0.2 mg/kg, route oral; details: plasma
[16] = Clearance in rat at 1 mg/kg, iv administered as bolus dose; assay type: ADME, organism-based; parameters: dose 1 mg/kg, route intravenous; details: in vivo
[17] = Clearance in dog at 0.2 mg/kg, iv infusion; assay type: ADME, organism-based, Canis lupus familiaris; parameters: dose 0.2 mg/kg, route intravenous; details: in vivo
[18] = Volume of distribution at steady state in rat at 1 mg/kg, iv administered as bolus dose; assay type: ADME, organism-based; parameters: dose 1 mg/kg, route intravenous; details: in vivo, read-out: Vdss
[19] = Volume of distribution at steady state in dog at 0.2 mg/kg, iv infusion; assay type: ADME, organism-based, Canis lupus familiaris; parameters: dose 0.2 mg/kg, route intravenous; details: in vivo, read-out: Vdss
[20] = Effective half life in rat at 1 mg/kg, iv administered as bolus dose; assay type: ADME, organism-based; parameters: dose 1 mg/kg, route intravenous; details: in vivo, read-out: t1/2eff (converted)
[21] = Effective half life in dog at 0.2 mg/kg, iv infusion; assay type: ADME, organism-based, Canis lupus familiaris; parameters: dose 0.2 mg/kg, route intravenous; details: in vivo, read-out: t1/2eff (converted)
[22] = Drug absorption in rat at 2 mg/kg, po; assay type: ADME, organism-based; parameters: dose 2 mg/kg, route oral; details: in vivo, read-out: Drug absorption
[23] = Oral bioavailability in rat at 2 mg/kg; assay type: ADME, organism-based; details: in vivo
[24] = Oral bioavailability in dog at 0.2 mg/kg; assay type: ADME, organism-based, Canis lupus familiaris; details: in vivo
Salmonella typhimurium [25] = assay: Genotoxicity in Salmonella typhimurium TA98 expressing lux gene assessed as mutagenicity by BioLum Ames test; assay type: toxicity, organism-based; details: salmonella enterica subsp. enterica serovar typhimurium
Salmonella typhimurium [26] = assay: Genotoxicity in Salmonella typhimurium TA100 expressing lux gene assessed as mutagenicity by BioLum Ames test; assay type: toxicity, organism-based; details: salmonella enterica subsp. enterica serovar typhimurium
CHO [27] = assay: Genotoxicity in CHO cells by micronucleus test in presence of metabolic activation; assay type: toxicity, cell-based, Cricetulus griseus; details: chinese hamster
CHO [28] = assay: Genotoxicity in CHO cells by micronucleus test in absence of metabolic activation; assay type: toxicity, cell-based, Cricetulus griseus; details: chinese hamster
[29] = Induction of phospholipidosis in transformed human liver epithelial cells; assay type: cell-based; details: epithelial cell
[30] = Toxicity in non-regulatory rat assessed as tolerability administered for 7 days; assay type: organism-based; details: in vivo
Rattus norvegicus [31] = assay: Free drug level in non-regulatory rat administered for 7 days; assay type: ADME, organism-based; details: in vivo, 168 h
[32] = Dissociation constant, pKa of the compound; assay type: physicochemical
[33] = Distribution coefficient, log D of the compound at pH 7.4; assay type: physicochemical; details: octanol/water
[34] = Solubility of the compound; assay type: physicochemical
[35] = Apparent permeability from apical to basolateral side in dog RRCK cells; assay type: ADME, cell-based, Canis lupus familiaris, MDCKII-LE; details: MDCK
MDR1 (P-gp) = assay: Efflux ratio of permeability from basolateral to apical side over apical to basolateral side of MDR1 transfected dog MDCK cells; assay type: ADME, cell-based, Canis lupus familiaris
BCRP = assay: Efflux ratio of permeability from basolateral to apical side over apical to basolateral side of BCRP transfected dog RRCK cells; assay type: ADME, cell-based, Canis lupus familiaris, MDCKII-LE
Nucleic Acid = assay: Ratio of drug level in CSF to free drug level in plasma in iv dosed rat administered at high multiple of H3R Ki measured after 4 hrs infusion; assay type: ADME, organism-based; details: in vivo
[36] = Ratio of free drug level in brain to plasma in iv dosed rat measured after 6 hrs infusion; assay type: ADME, organism-based; details: read-out: K(p,uu,brain)
[37] = Ratio of free drug level in brain to plasma in rat at 8 mg/kg/day, po for 8 days; assay type: ADME, organism-based; parameters: route oral; details: read-out: K(p,uu,brain)
[38] = Ratio of free drug level in brain to plasma in dog at 1.5 mg/kg/day, po for 8 days; assay type: ADME, organism-based, Canis lupus familiaris; parameters: route oral; details: read-out: K(p,uu,brain)
[39] = Therapeutic index in EEG PKPD rat relative to CNS penetrant compound Z; assay type: organism-based; details: in vivo, read-out: TI
[40] = Oral bioavailability in rat; assay type: ADME, organism-based; details: in vivo
Histamine H3 receptor [41] = biological target: T1, Histamine H3 receptor (Homo sapiens, UniProt Q9Y5N1); assay: Displacement of [3H]-N-alpha-methylhistamine from human recombinant histamine H3 receptor expressed in HEK293 cell membrane; assay type: cell membranes
T1 sequence (Q9Y5N1 whole entry): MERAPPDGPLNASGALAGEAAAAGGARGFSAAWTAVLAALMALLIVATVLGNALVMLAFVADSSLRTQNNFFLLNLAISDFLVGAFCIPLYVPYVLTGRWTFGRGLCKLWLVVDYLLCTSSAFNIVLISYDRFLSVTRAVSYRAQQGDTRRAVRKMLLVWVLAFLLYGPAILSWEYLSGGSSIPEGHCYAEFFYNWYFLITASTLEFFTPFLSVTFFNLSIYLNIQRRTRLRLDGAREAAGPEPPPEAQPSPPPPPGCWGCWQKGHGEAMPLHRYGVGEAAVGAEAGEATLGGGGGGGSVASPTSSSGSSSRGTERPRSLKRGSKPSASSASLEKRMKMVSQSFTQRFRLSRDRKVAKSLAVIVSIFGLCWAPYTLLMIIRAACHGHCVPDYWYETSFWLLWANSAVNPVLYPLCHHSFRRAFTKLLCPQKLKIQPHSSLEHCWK

Histamine H3 receptor [42] = biological target: T1, Histamine H3 receptor; assay: Displacement of [3H]-PF-05255650 from human recombinant histamine H3 receptor expressed in HEK293 cell membrane; assay type: cell membranes
Histamine H3 receptor [43] = biological target: T2, Histamine H3 receptor (Rattus norvegicus, UniProt Q9QYN8); assay: Displacement of [3H]-N-alpha-methylhistamine from rat recombinant histamine H3 receptor expressed in HEK293 cell membrane; assay type: cell membranes
T2 sequence (Q9QYN8 whole entry): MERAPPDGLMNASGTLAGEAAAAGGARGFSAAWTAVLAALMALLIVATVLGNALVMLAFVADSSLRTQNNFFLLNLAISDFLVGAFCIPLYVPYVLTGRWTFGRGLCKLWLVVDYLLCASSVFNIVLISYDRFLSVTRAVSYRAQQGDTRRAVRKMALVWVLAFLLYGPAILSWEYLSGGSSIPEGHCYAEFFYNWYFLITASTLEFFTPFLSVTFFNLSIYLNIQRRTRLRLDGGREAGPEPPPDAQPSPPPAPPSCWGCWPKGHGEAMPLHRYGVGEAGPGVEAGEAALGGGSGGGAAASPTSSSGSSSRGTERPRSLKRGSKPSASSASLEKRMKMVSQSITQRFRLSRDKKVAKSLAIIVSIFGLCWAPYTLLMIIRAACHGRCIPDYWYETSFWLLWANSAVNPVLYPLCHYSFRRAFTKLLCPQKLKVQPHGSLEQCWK

Histamine H3 receptor [44] = biological target: T2, Histamine H3 receptor; assay: Displacement of [3H]-N-alpha-methylhistamine from histamine H3 receptor in rat brain; assay type: tissue-based
Histamine H3 receptor [45] = biological target: T1, Histamine H3 receptor; assay: Inhibition of human recombinant histamine H3 receptor expressed in HEK293 cells assessed as inhibition of imetit-induced reduction in NKH477-stimulated cAMP accumulation by DiscoveRxTM assay; assay type: functional, cell-based
Histamine H3 receptor [46] = biological target: T1, Histamine H3 receptor; assay: Inhibition of human recombinant histamine H3 receptor expressed in HEK293 cells by Glosensor functional assay; assay type: cell-based
[47] = biological target: Histamine H3 receptor (Cavia porcellus) (UniProt Q9JI35); assay: Inhibition of histamine H3 receptor in electrically contracted guinea pig ileum assessed as reduction of R-alpha-methyl histamine mediated relaxation; assay type: tissue-based
Histamine H3 receptor (Cavia porcellus), sequence (Q9JI35 whole entry): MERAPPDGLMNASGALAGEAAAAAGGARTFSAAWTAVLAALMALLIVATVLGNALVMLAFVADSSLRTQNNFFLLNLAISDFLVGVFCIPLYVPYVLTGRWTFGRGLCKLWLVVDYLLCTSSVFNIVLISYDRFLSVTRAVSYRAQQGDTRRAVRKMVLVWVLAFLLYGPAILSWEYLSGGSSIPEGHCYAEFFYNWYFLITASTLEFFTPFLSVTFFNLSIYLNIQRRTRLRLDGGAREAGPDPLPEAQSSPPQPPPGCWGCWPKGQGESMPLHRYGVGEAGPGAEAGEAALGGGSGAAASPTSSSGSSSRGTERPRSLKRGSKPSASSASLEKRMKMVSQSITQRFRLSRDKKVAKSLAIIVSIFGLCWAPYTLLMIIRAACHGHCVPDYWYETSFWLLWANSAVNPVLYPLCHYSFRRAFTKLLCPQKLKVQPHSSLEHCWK

[48] = Binding affinity to sigma receptor (unknown origin); parameters: species or system Homo sapiens
HEK293 = assay: Selectivity ratio of Ki for sigma receptor (unknown origin) to Ki for human recombinant histamine H3 receptor expressed in HEK-293 cells; assay type: cell-based
Histamine H1 receptor = Histamine H1 receptor (Homo sapiens, UniProt P35367); assay: Binding affinity to human histamine H1 receptor
Histamine H1 receptor, sequence (P35367 whole entry): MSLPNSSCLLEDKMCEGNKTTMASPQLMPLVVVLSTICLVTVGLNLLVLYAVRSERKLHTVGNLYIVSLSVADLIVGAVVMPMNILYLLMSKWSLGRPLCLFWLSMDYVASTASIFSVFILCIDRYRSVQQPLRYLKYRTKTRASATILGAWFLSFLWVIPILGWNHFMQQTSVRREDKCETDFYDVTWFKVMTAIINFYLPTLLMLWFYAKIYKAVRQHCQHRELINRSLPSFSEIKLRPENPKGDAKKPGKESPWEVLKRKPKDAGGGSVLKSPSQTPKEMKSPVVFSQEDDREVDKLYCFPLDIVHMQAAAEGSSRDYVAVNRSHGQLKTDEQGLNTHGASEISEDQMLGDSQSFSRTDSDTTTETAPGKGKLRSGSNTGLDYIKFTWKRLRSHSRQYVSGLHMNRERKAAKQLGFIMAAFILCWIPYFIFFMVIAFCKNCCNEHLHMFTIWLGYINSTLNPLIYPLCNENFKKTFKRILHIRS

Histamine H2 receptor = Histamine H2 receptor (Homo sapiens, UniProt P25021); assay: Binding affinity to human histamine H2 receptor
Histamine H2 receptor, sequence (P25021 whole entry): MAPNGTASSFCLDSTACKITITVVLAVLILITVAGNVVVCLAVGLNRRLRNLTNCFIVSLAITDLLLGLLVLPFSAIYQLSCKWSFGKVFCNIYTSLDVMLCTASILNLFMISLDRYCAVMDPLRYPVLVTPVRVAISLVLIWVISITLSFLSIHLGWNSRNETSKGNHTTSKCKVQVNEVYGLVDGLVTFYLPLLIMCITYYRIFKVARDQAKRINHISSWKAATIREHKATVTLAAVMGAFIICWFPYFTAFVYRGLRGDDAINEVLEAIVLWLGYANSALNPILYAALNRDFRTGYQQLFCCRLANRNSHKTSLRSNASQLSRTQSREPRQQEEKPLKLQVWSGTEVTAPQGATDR

Histamine H4 receptor = Histamine H4 receptor (Homo sapiens, UniProt Q9H3N8); assay: Binding affinity to human histamine H4 receptor
Histamine H4 receptor, sequence (Q9H3N8 whole entry, the tested form may be a part): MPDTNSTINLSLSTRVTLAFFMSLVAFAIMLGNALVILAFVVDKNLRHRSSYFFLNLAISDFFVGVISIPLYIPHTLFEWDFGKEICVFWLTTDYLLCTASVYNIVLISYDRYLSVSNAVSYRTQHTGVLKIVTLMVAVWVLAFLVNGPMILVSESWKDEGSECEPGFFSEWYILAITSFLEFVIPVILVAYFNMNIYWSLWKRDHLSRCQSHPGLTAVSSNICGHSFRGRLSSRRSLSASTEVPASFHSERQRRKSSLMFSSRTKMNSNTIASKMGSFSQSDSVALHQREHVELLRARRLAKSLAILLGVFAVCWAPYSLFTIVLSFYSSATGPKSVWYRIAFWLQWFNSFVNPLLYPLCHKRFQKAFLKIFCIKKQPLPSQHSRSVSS

Rattus norvegicus [49] = assay: Ex vivo receptor occupancy of histamine H3 receptor in iv dosed rat brain administered at 20 times free H3R Ki in plasma measured after 6 hrs infusion; assay type: functional

Voltage-gated inwardly rectifying potassium channel KCNH2, sequence (Q12809 whole entry): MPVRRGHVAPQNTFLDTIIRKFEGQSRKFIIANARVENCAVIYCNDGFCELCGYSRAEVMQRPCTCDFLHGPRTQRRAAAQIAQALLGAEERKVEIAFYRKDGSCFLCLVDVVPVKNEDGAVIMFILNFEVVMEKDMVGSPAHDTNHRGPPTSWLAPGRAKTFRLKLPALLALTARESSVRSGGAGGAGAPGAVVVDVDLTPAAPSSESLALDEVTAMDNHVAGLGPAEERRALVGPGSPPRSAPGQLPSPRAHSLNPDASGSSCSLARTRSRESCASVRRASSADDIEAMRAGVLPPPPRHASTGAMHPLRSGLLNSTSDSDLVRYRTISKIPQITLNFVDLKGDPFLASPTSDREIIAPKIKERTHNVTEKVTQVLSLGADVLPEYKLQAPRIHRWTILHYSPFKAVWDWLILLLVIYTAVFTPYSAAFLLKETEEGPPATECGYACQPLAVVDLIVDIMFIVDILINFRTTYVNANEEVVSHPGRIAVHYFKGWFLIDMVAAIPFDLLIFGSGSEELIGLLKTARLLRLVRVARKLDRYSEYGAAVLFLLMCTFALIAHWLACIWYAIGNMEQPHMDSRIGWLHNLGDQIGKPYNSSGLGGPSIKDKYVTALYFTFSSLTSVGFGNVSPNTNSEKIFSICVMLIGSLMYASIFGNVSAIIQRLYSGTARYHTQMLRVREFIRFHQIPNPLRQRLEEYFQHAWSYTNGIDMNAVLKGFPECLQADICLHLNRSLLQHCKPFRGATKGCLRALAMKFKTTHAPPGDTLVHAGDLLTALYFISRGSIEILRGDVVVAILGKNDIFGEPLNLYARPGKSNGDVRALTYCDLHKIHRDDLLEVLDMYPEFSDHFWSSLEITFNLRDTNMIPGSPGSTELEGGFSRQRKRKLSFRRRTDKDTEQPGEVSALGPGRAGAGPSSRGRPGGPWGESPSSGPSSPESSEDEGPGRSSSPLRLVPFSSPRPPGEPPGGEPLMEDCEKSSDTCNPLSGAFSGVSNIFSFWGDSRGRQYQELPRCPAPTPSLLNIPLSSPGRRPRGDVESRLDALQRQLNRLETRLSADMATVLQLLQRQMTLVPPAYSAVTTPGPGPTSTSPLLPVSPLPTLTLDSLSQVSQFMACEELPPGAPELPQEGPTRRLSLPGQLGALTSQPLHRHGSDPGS

Compound: CC(C)N1CCC(Oc2ccc(C3(C(N)=O)CCOCC3)cc2)CC1
- Ki [1]: > 40000 nM
- Cmax [2]: 477 ng/mL
- Cmax [3]: 89 ng/mL
- Cmax [4]: 129 ng/mL
- Cmax [5]: 142 ng/mL
- fCmax (Rattus norvegicus [6]): 856 nM
- fCmax (Rattus norvegicus [7]): 158 nM
- fCmax (Canis familiaris [8]): 320 nM
- fCmax (Canis familiaris [9]): 352 nM
- Tmax [10]: 0.75 h
- Tmax [11]: 0.9 h
- AUC [12]: 776 ng·h/mL
- AUC [13]: 649 ng·h/mL
- AUC [14]: 548 ng·h/mL
- AUC [15]: 727 ng·h/mL
- clearance [16]: 27 mL/min/kg
- clearance [17]: 6.1 mL/min/kg
- Vd [18]: 4.1 L/kg
- Vd [19]: 2.3 L/kg
- half-life [20]: 1.9 h
- half-life [21]: 4.5 h
- Fa [22]: 57%
- bioavailability [23]: 42%
- bioavailability [24]: 133%
- Activity (Salmonella typhimurium [25]): Non-toxic
- Activity (Salmonella typhimurium [26]): Non-toxic
- Activity (CHO [27]): Non-toxic
- Activity (CHO [28]): Non-toxic
- NOAEL [29]: 150 µM
- NOAEL at 168 h [30]: 80 mg/kg/day
- Drug uptake(free) (Rattus norvegicus [31]): 14.051 µM
- pKa [32]: 9.78
- logD [33]: 0
- solubility [34]: > 1000 µg/mL
- Papp A→B [35]: 2 ×10⁻⁶ cm/s
- efflux ratio (MDR1 (P-gp)): 3.3
- efflux ratio (BCRP): 5.6
- Ratio (Nucleic Acid): 0.06
- Kp uu at 6 h [36]: 0.1
- Kp uu at 192 h [37]: 0.07
- Kp uu at 192 h [38]: 0.1
- selectivity ratio [39]: 16
- bioavailability [40]: 42%
- Ki (Histamine H3 receptor [41]): 9.6 nM
- Ki (Histamine H3 receptor [42]): 1.36 nM
- Ki (Histamine H3 receptor [43]): 90.6 nM
- Ki (Histamine H3 receptor [44]): 145 nM
- Emax (Histamine H3 receptor [45]): 195%
- Ki (Histamine H3 receptor [45]): 0.832 nM
- Kb (Histamine H3 receptor [46]): 0.42 nM
- A2 [47]: 0.96 nM
- Ki [48]: 3900 nM
- Ratio Ki (HEK293): > 400
- Ki (Histamine H1 receptor): > 4000 nM
- Ki (Histamine H2 receptor): > 4000 nM
- Ki (Histamine H4 receptor): > 4000 nM

Compound: CC(C)N1CCC(Oc2ccc3c(n2)CCN(c2ccc(C(N)=O)cn2)C3)CC1
- logD [33]: 1.2
- solubility [34]: > 1000 µg/mL
- Papp A→B [35]: 11 ×10⁻⁶ cm/s
- efflux ratio (MDR1 (P-gp)): 4.8
- efflux ratio (BCRP): 3.7
- Ratio (Nucleic Acid): 0.05
- Kp uu at 6 h [36]: 0.1
- Kp uu at 192 h [37]: 0.07
- selectivity ratio [39]: 40
- bioavailability [40]: 54%
- Occ (Rattus norvegicus [49]): 18%
